The record followed here is the OPERA property sets (Mansouri et al. 2018).

The compound `NC1=NCC(CN2CCN(c3ccc(F)cc3)CC2)O1` (stereo not given) yielded a logP of 1. As for `NC1=NCC(CN2CCN(c3ccccc3Cl)CC2)O1` (stereo not given), the logP turned out to be 1.87. For `NC1=NCC(CN2CCN(c3ncccn3)CC2)O1` (stereo not given), the logP was found to be 0.21.

Consider `NC1=NCC(CN2CCN(c3ccccn3)CC2)O1` (stereo not given), for which the logP came out at 0.48. Under `NC1=NCC(CN2CCN(c3ccc(Cl)c(Cl)c3)CC2)O1` (stereo not given) stands 2.4; under `COc1ccccc1N1CCN(CC2CN=C(N)O2)CC1` (stereo not given), 0.76. Under `COc1ccc(N2CCN(CC3CN=C(N)O3)CC2)cc1` (stereo not given) stands 0.68; under `NC1=NCC(CN2CCN(c3ccc(Cl)cc3)CC2)O1` (stereo not given), 1.71; under `NC1=NCC(CN2CCN(c3cccc(Cl)c3)CC2)O1` (stereo not given), 1.83. Under `COc1cccc(N2CCN(CC3CN=C(N)O3)CC2)c1` (stereo not given) stands 0.87. The compound `Cc1cccc(N2CCN(CC3CN=C(N)O3)CC2)c1C` (stereo not given) registered a log partition coefficient (logP) of 2.19. Under `CCOc1ccccc1N1CCN(CC2CN=C(N)O2)CC1` (stereo not given) stands 1.21. In turn, `NC1=NCC(CN2CCN(c3cccc(C(F)(F)F)c3)CC2)O1` (stereo not given) gave a log partition coefficient (logP) of 2.21.

Take `NC1=NCC(CN2CCN(c3ccccc3)CC2)O1` (stereo not given): the logP was determined as 0.85. As to `Cc1ccc(N2CCN(CC3CN=C(N)O3)CC2)cc1` (stereo not given), the logP stood at 1.23.

What is called logP is the decadic logarithm of the partition coefficient of the neutral form, usually between octanol and water. Lower therefore signals a more hydrophilic compound.
